Source: patent publication US11266686B2, “Metal complexes and methods of treatment” (PROCYPRA THERAPEUTICS LLC, priority 2013, dated 2022)

Assays:
[1] = Cu-63 in brain and plasma of treated MPTP-lesioned mice by ICPMS
Experimental: (§1) CuATSM:gluconic acid (1:2) was prepared according to the method of EXAMPLE 7. CuATSM:saccharin (1:2) was prepared according to the methods of EXAMPLE 3. CuATSM was suspended in “Standard Suspension Vehicle” (SSV), consisting of 0.9% (w/v) NaCl, 0.5% (w/v) sodium carboxymethylcellulose, 0.5% (v/v) benzyl alcohol, and 0.4% (v/v) Tween 80 in deionized water. CuATSM:gluconic acid (1:2) and CuATSM:saccharin (1:2) were suspended in sterile water. Samples were prepared by adding one of the compounds to the liquid vehicle (water or SSV) in a vial and then vortexing the mixture for 3 min with a stir bar inside.
(§2) MPTP mouse models of PD are described by (Przedborski & Vila, 2003). […] Behavioral testing via the wire test and tissue harvesting followed.
Copper uptake in brain and in plasma was measured by inductively-coupled plasma mass spectrometry (ICPMS) determination of the naturally-occurring copper isotope Cu-63. Brain tissue was obtained from the left hemisphere of the brain.

[2] = system: MPTP-lesioned mice; test: Traction wire test in MPTP-lesioned mouse model of PD; assay type: in vivo; details: for average pull-up time as compared to SSV control: 30 mg/kg API oral for 21 days, gluconic acid NCD p=0.07; for Pull-up Time: 30 mg/kg CuATSM API equivalent, oral gavage for 21 days, average
Text: Traction wire test: Mice are moved to behavior room-testing room 1 hr before test administration. Water and food remain accessible to the mice, and a background “white noise” from a radio is used throughout the hour and test period. Each mouse is pick up the mouse by the tail in one hand, and the mouse held by the tail over the wire until it grasps the wire with the front two paws. The tail is then lowered until the mouse is suspended from the wire by its front two paws. The timing is started as soon as the mouse is suspended independently, with no assistance from the test administrator. The time taken for the mouse to grasp the wire with one of the back feet, such that two front paws and one back paw are grasping the wire, is recorded as the “pull-up time”. The test is repeated for each mouse, three times in a row with a 5 minute inter-trial interval between each suspension on the wire. Mice are returned to their shared cages between trials. If a mouse falls it counts as a trial, and the time until the fall is recorded, and the inter-trial time interval is begun. If the mouse has not completed the task and has not fallen within 60 seconds, then the mouse is taken off the wire and the trial time recorded as 60 seconds. A total of 47 mice were administered MPTP. Of these, a total of 14 mice were then treated with SSV negative control. A total of 14 mice were treated with CuATSM in SSV, of which one mouse was eliminated from the wire pull-up study because of an injured paw. […] Trials in which the mouse fell during the trial were not included in the averages. […] In all instances the mice completed the other two trials successfully so that an average time was calculated for the individual mouse and subsequently for the population.

[3] = system: MPTP-lesioned mice; test: Neutral Red positive cell count in substantia nigra of MPTP-lesioned mice; assay type: in vivo, mouse; details: 30 mg/kg API oral for 21 days
Experimental: as §1, §2
Neuroprotective effects of the CuATSM and NCDs were determined by cell count.
Following the wire pull-up time tests, the mice were anesthetized, blood samples were then obtained for plasma studies, and the mice were then sacrificed by an overdose of anesthetic. Mice were then immediately perfused with cold PBS. The right hemisphere of the brain was placed in 5 ml of chilled 4% wt/vol paraformaldehyde (Sigma-Aldrich) in 0.1 M phosphate buffer overnight at 4° C. and pH 7.4. The brains were then removed and left at 4° C. overnight in 30% wt/vol sucrose (domestic grade) in PBS before being frozen and sectioned on a cryostat. Brains were cut coronally into 30-μm sections in a 1:3 series for the substantia nigra pars compacta (SNpc).
The resulting sections were stained with Neutral Red (Niss1 stain; Sigma-Aldrich). Just prior to immunostaining, the frozen sections are fixed again for 5 min in order to ensure that the brain sections are properly fixed to the glass slide. SNpc nuclei from both normal and lesioned animals were examined. […]
The total number of neurons in the substania nigra was estimated using fractionator sampling (Finkelstein et al., 2000; Stanic et al., 2003; West & Gundersen, 1990). […] The entire SNpc was sampled at every third section and analyzed in a series having a random offset for each brain. […]

[4] = MPTP-lesioned mice, 30 mg/kg API oral for 21 days
[5] = MPTP-lesioned mice, 30 mg/kg API oral for 21 days, ICPMS

CNC1=NN=C(C)C(C)=NN=C(NC)[S][Cu][S]1 [CuATSM, Copper(II) diacetyl-di(N4-methyl)thiosemicarbazone, reference compound]
Cu-63 in brain, Average ([1]; mouse, in vivo, po, 30 mg/kg): 18.48 µg/g | Cu-63 in plasma, Average ([1]; mouse, in vivo, po, 30 mg/kg): 5.40 μmol/ltr | average pull-up time as compared to SSV control [2]: significant (both p<0.01 or less) decrease | Pull-up Time [2]: 4.22 s | neurons in the substania nigra as compared to SSV control [3]: significant (all p<0.01 or less) recovery of the neurons

CNC1=NN=C(C)C(C)=NN=C(NC)[S][Cu][S]1.O=C(O)C(O)C(O)C(O)C(O)CO.O=C(O)C(O)C(O)C(O)C(O)CO [CuATSM:gluconic acid (1:2)]
Cu-63 concentrations in brain tissue as compared to the SSV control [1, 4]: significant (all p<0.001) increase | Cu-63 concentrations in plasma as compared to the SSV control [1, 4]: No treatments resulted in significant (all p>0.05) change | Cu-63 in brain, Average [1, 5]: 22.20 µg/g | Cu-63 in plasma, Average [1, 5]: 5.27 μmol/ltr | average pull-up time as compared to SSV control [2]: decrease in the average pull-up time | Pull-up Time [2]: 4.62 s | neurons in the substania nigra as compared to SSV control [3]: significant (all p<0.01 or less) recovery of the neurons

CNC1=NN=C(C)C(C)=NN=C(NC)[S][Cu][S]1.O=C1NS(=O)(=O)c2ccccc21.O=C1NS(=O)(=O)c2ccccc21 [CuATSM:saccharin (1:2)]
Cu-63 concentrations in brain tissue as compared to the SSV control [1, 4]: significant (all p<0.001) increase | Cu-63 concentrations in plasma as compared to the SSV control [1, 4]: No treatments resulted in significant (all p>0.05) change | Cu-63 in brain, Average [1, 5]: 14.66 µg/g | Cu-63 in plasma, Average [1, 5]: 6.13 μmol/ltr | average pull-up time as compared to SSV control [2]: significant (both p<0.01 or less) decrease | Pull-up Time [2]: 3.11 s | neurons in the substania nigra as compared to SSV control [3]: significant (all p<0.01 or less) recovery of the neurons
